Measured values reported in patent US11547667B2 (priority 2007, dated 2023).

Test system: CD4 T cells from OT-II donor mice
Experiment: In vivo CD4 T cell activation, CFSE dilution of transferred OT-II T cells
Set-up: species or system C57BL6J mice
Conditions: footpad injection, with CpG adjuvant, three days after immunization
Experimental: Subsequently, immunization experiments were performed by injecting one footpad with free OVA or with nanoparticles composed of either PLA or PLGA that encapsulated an equivalent amount of OVA as a model antigen. All antigenic mixtures also contained CpG (a TLR9 agonist) as an adjuvant. The animals were injected, sacrificed three days after immunization, and OT-II T cell activation was assessed by flow cytometry in single-cell suspensions from different tissues.
By contrast, activated T cells divide and in the process split the fluorescent dye evenly between the two daughter cells resulting in an incremental decrease in fluorescence intensity upon each successive division. Thus, the greater the left shift in CFSE, fluorescence the stronger T cells were activated.

For “free OVA: free chicken ovalbumin (OVA), mixed with CpG adjuvant”, the “local T cell proliferation in distal lymphoid tissues (brachial lymph node, spleen)” value was “only undivided cells or cells with very low CFSE content”.
